Laboratory results taken from ChEMBL document CHEMBL3621112, “Computationally motivated synthesis and enzyme kinetic evaluation of N-(-d-glucopyranosyl)-1,2,4-triazolecarboxamides as glycogen phosphorylase inhibitors” (Medchemcomm, 2015).

Legend:
[1] = Inhibition of glycogen phosphorylase (unknown origin); parameters: species or system Homo sapiens
[2] = target: T1, Glycogen phosphorylase, muscle form (Oryctolagus cuniculus, UniProt P00489); assay: Inhibition of glycogen phosphorylase b in rabbit skeletal muscle using glycogen substrate and glucose-1-phosphate by Lineweaver-Burk plot method
T1 sequence (P00489 whole entry): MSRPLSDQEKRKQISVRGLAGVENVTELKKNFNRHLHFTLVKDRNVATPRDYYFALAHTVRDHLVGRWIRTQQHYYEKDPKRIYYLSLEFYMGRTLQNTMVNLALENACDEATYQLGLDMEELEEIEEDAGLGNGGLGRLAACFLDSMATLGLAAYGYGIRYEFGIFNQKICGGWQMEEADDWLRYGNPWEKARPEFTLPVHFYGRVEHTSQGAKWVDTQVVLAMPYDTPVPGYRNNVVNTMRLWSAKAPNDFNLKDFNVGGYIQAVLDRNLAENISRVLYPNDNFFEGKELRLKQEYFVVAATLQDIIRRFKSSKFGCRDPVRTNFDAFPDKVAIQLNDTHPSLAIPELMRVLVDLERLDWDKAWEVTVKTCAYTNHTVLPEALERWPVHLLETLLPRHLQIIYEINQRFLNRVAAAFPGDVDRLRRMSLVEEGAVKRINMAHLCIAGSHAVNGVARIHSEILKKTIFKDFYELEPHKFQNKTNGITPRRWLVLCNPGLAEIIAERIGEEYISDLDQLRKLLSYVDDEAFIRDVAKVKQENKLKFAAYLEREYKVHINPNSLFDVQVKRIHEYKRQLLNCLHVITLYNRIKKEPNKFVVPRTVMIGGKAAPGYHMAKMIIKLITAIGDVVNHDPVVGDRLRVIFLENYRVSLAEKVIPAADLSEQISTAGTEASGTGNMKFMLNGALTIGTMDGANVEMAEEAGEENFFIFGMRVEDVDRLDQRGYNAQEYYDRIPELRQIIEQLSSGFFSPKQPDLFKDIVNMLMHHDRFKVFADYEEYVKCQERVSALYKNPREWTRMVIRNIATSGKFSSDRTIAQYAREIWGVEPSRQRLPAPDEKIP

Row | SMILES | Ki [1] [µM] | Ki [2] | Ki ([2]; read-out: Ki) [µM]
1 | O=C(NC(=O)c1ccc2ccccc2c1)N[C@@H]1O[C@H](CO)[C@@H](O)[C@H](O)[C@H]1O | 0.35 |  | 
2 | O=C(N[C@@H]1O[C@H](CO)[C@@H](O)[C@H](O)[C@H]1O)c1noc(-c2ccc3ccccc3c2)n1 |  | Not Active | 
3 | O=C(N[C@@H]1O[C@H](CO)[C@@H](O)[C@H](O)[C@H]1O)c1nnc(-c2ccc3ccccc3c2)[nH]1 |  |  | 9.2
4 | O=C(N[C@@H]1O[C@H](CO)[C@@H](O)[C@H](O)[C@H]1O)c1nnc(-c2ccccc2)[nH]1 |  |  | 1
5 | O=C(N[C@@H]1O[C@H](CO)[C@@H](O)[C@H](O)[C@H]1O)c1nc(-c2ccc3ccccc3c2)no1 |  | Not Active | 
